# Measurements as given in article PMC11727410, “Identification of Chemical Constituents from Leaves and Stems of Alpinia oxyphylla: Potential Antioxidant and Tyrosinase Inhibitory Properties” (Antioxidants, 2024).
# Tests used:
# [1] = ABTS radical scavenging activity assay; details: for Inhibitory rate (%), ABTS (Table S4): Table S4, concentration not given; for ABTS Inhibitory Rate (%): concentration 200 μM, "-" not active; for IC50: converted from μg/mL
# Experimental: The ABTS radical scavenging activity was examined as previously reported at room temperature (25 °C). Briefly, 160 μL sample in DMSO with different concentrations (800, 400, 200, 100, 50, 25 μM) was reacted with 480 μL ABTS reagent in a 1.5 mL centrifuge tube away from light for 6 min. Next, 200 μL of the mixture was taken out and transferred into a 96-well plate, which was used for measuring the absorbance by a microplate reader at 734 nm (ODsample). The control (ODcontrol) and blank (ODblank) were, respectively, established from the mixture solutions of the sample in DMSO and water and the mixture solution of DMSO and ABTS reagent. Trolox was the positive control, with the same concentration with compounds. The ABTS radical scavenging capacity was calculated as following:ABTS radical scavenging capacity (%) = [1 − (ODsample − ODcontrol)/ODblank] × 100%
# B16 cells [2] = experiment: MTT assay for cell viability; assay type: cell-based; details: under the selected concentrations
# Experimental: (§1) B16 melanoma cells (PNS-MC-36) were purchased from Procell Life Science & Technology Co., Ltd. (Wuhan, China).
# A modified MTT method was applied to screen cell viability. B16 cells were cultured in 96-well plates and mixed with different concentrations of the sample after 24 h. After having been incubated for another 72 h, MTT solution was added to form formazan, which was followed by dissolved in 100 μL DMSO, and then the absorbance (OD) was measured at 490 nm. Cell viability was calculated as percent changes relative to control.
# [3] = DPPH radical scavenging activity assay; details: for Inhibitory rate (%), DPPH (Table S4): Table S4, concentration not given; for DPPH Inhibitory Rate (%): concentration 200 μM; for IC50: converted from μg/mL
# Experimental: The DPPH radical scavenging capacity was measured according to the following reference at room temperature (25 °C). Briefly, 320 μL sample in DMSO with different concentrations (400, 200, 100, 50, 25, 12.5 μM) was reacted with 320 μL DPPH reagent (0.1 mM) in 1.5 mL centrifuge tube away from light for 30 min. Next, 200 μL of the mixture was transferred into a 96-well plate, which was used for measuring the absorbance at 517 nm (ODsample). A control (ODcontrol) and blank (ODblank) were, respectively, established from the mixture solutions of the sample in DMSO and ethanol and the mixture solution of DMSO and DPPH reagent. Vitamin C was the positive control, with the same concentration as the compounds. The DPPH radical scavenging capacity was calculated according to the following:DPPH radical scavenging capacity (%) = [1 − (ODsample − ODcontrol)/ODblank] × 100%
# B16 cells [4] = experiment: Measurement of melanin produced by B16 cells; assay type: cell-based; details: 150 μM, compared with positive control kojic acid; concentration dependent
# Experimental: as §1
# B16 cells were seeded into 96-well plates with […], and incubated at 37 °C, 5% CO2, and 90% humidity for 24 h. Having removed the supernatant, 100 μL samples with different concentrations were added. Medium without the sample was added as the blank. After incubation for another 72 h, the cells were dissolved in 100 μL of 2 N NaOH, and then incubated at 80 °C. The absorbance (OD) was measured at 450 nm.
# [5] = DPPH radical scavenging activity assay; details: concentration 100 μg/mL
# [6] = ABTS radical scavenging activity assay; details: concentration 100 μg/mL
SMILES,ABTS IC50 ± SD [1] [µg/mL],"Inhibitory rate (%), ABTS (Table S4) [1] [%]",ABTS Inhibitory Rate (%) [1] [%],Toxicity to B16 cells (B16 cells [2]),"Inhibitory rate (%), DPPH (Table S4) [3] [%]",DPPH Inhibitory Rate (%) [3] [%],Melanin production inhibition activity in B16 cells (B16 cells [4]),DPPH IC50 ± SD [3] [µg/mL],IC50 [1] [µM],IC50 [3] [µM],DPPH free radical scavenging rate [5] [%],ABTS free radical scavenging rate [6] [%]
"COc1cc(CC(O)C(O)CC2OC(CC(O)C(O)Cc3ccc(O)c(OC)c3)C3C(c4cc(OC)c(O)c(OC)c4)OC(c4cc(OC)c(O)c(OC)c4)C23)ccc1O (stereo not shown) [Compound 1, Aloxy A]",39.59 ± 0.53,91.09 ± 0.55,91.09 ± 0.55,no toxicity,50.74 ± 2.31,50.74 ± 2.31,stronger inhibitory effects than positive control (kojic acid),,,,,
"COC(=O)C1OC(Oc2c(-c3ccc(O)cc3)oc3cc(O)cc(O)c3c2=O)C(OC2OC(C)C(O)C(O)C2O)C(OC(C)=O)C1OC(C)=O [Compound 2, Kaempferol 3-O-α-L-rhamnosyl-(1 → 2)-(3″,4″-diacetyl-β-D-glucuronatemethyl ester)]",6.42 ± 0.12,93.04 ± 0.10,93.04 ± 0.10,no toxicity,22.77 ± 1.85,22.77 ± 1.85,stronger inhibitory effects than positive control (kojic acid),,,,,
"COc1cc(CCC(=O)CCCCc2ccccc2)ccc1O [Compound 6, yakuchinone A]",,4.42 ± 0.12,4.42 ± 0.12,,18.77 ± 1.28,18.77 ± 1.28,,,,,,
"COc1cc(CCC(=O)CC(O)CCc2ccc(O)c(OC)c2)ccc1O (stereo not shown) [Compound 7, hexahydrocurcumin]",13.17 ± 0.18,91.09 ± 0.41,91.09 ± 0.41,no toxicity,35.80 ± 0.77,35.80 ± 0.77,stronger inhibitory effects than positive control (kojic acid),,,,,
"COc1cc(CC/C=C/C(=O)CCc2ccc(O)c(OC)c2)ccc1O [Compound 8, gingerenone A]",36.06 ± 1.07,90.81 ± 0.24,90.81 ± 0.24,,52.84 ± 2.47,52.84 ± 2.47,,,,,,
"COC(=O)[C@H]1O[C@@H](Oc2c(-c3ccc(O)cc3)oc3cc(O)cc(O)c3c2=O)[C@H](O[C@@H]2O[C@@H](C)[C@H](O)[C@@H](O)[C@H]2O)[C@@H](O)[C@@H]1O [Compound 9, kaempferol 3-O-α-L-rhamnosyl-(1 → 2)-(β-D-glucuronatemethyl ester)]",6.20 ± 0.05,92.39 ± 0.27,92.39 ± 0.27,,43.07 ± 3.99,43.07 ± 3.99,,,,,,
"COc1ccc(-c2oc3cc(OC)cc(O)c3c(=O)c2O)cc1 [Compound 12, 3,5-dihydroxy-4′,7-dimethoxyflavone]",8.55 ± 0.08,75.07 ± 0.46,75.07 ± 0.46,,79.80 ± 2.02,79.80 ± 2.02,,23.15 ± 3.24,,,,
"COc1cc(O)c2c(=O)cc(-c3ccccc3)oc2c1 [Compound 13, tectochrysin]",20.81 ± 0.29,91.93 ± 1.68,91.93 ± 1.68,,18.61 ± 0.62,18.61 ± 0.62,,,,,,
"O=C1C[C@@H](c2ccccc2)Oc2cc(O)cc(O)c21 [Compound 14, pinocembrin]",27.73 ± 0.69,78.11 ± 0.32,78.11 ± 0.32,,27.53 ± 1.96,27.53 ± 1.96,,,,,,
"O=c1ccc2c(O)cc3c(c2o1)C[C@@H](O)[C@@H](c1ccc(O)c(O)c1)O3 [Compound 15, isoepiphyllocoumarin]",30.57 ± 0.93,71.48 ± 0.32,71.48 ± 0.32,,36.54 ± 3.60,36.54 ± 3.60,,,,,,
"O=c1ccc2c3c(c(O)cc2o1)C[C@@H](O)[C@@H](c1ccc(O)c(O)c1)O3 [Compound 16, epiphyllocoumarin]",8.49 ± 0.06,92.51 ± 0.27,92.51 ± 0.27,,76.93 ± 1.34,76.93 ± 1.34,,7.29 ± 0.60,,,,
"OC[C@H]1O[C@@H](OCc2ccccc2)[C@H](O)[C@@H](O)[C@@H]1O [Compound 17, benzyl O-β-D-glucopyranoside]",,,,,25.74 ± 1.49,25.74 ± 1.49,,,,,,
"COc1cc(O)cc(OC)c1O[C@@H]1O[C@H](CO)[C@@H](O)[C@H](O)[C@H]1O [Compound 19, 4-hydroxy-2,6-dimethoxyphenyl-β-D-glucoside]",17.50 ± 0.23,92.57 ± 0.10,92.57 ± 0.10,,60.59 ± 0.17,60.59 ± 0.17,,114.44 ± 0.14,52.9,345,,
"COc1cc(O)ccc1O[C@@H]1O[C@H](CO)[C@@H](O)[C@H](O)[C@H]1O [Compound 20, 1,4-dihydroxyl-3-methoxyphenyl-4-O-β-D-glucopyranoside]",8.20 ± 0.14,92.80 ± 0.31,92.80 ± 0.31,,84.06 ± 1.79,84.06 ± 1.79,,23.21 ± 2.88,27.2,77,,
"OC[C@H]1O[C@@H](Oc2ccccc2O)[C@H](O)[C@@H](O)[C@@H]1O [Compound 21, pyrocatechol 1-O-β-D-glucopyranoside]",46.03 ± 0.27,92.57 ± 0.27,92.57 ± 0.27,,31.39 ± 3.99,31.39 ± 3.99,,≥ 200,169,,,
"COc1ccc([C@H]2OC[C@H]3[C@@H]2CO[C@@H]3c2ccc(OC)c(O[C@@H]3O[C@H](CO)[C@@H](O)[C@H](O)[C@H]3O)c2)cc1O [Compound 22, 4,4′-dimethoxy-3′-hydroxy-7,9′:7′,9-diepoxylignan-3-O-β-D-glucopyranoside]",33.32 ± 0.29,91.51 ± 0.21,91.51 ± 0.21,,36.91 ± 2.04,36.91 ± 2.04,,,,,,
"O=C1O[C@H]([C@@H](O)CO)C(O)=C1O [Vitamin C, reference compound]",,,,,85.44 ± 0.34,85.44 ± 0.34,,6.20 ± 0.41,,,72.7,
"Cc1c(C)c2c(c(C)c1O)CCC(C)(C(=O)O)O2 (stereo not shown) [trolox, Trolox, reference compound]",31.61 ± 0.60,92.69 ± 0.03,92.69 ± 0.03,,,,,,,,,91.6
